IC50 data for 17 compounds are collected here from patent US9434763B2, “Derivatives of pyridinone as inhibitors for tissue transglutaminase” (ZEDIRA GMBH, priority 2012, dated 2016).

Structures are written as SMILES.

The target in this assay is T1, His tagged recombinant human tissue transglutaminase (His6-rh-TG2) (Homo sapiens, UniProt P21980).
T1 construct: purchased Zedira T002
T1 sequence (P21980 1-687): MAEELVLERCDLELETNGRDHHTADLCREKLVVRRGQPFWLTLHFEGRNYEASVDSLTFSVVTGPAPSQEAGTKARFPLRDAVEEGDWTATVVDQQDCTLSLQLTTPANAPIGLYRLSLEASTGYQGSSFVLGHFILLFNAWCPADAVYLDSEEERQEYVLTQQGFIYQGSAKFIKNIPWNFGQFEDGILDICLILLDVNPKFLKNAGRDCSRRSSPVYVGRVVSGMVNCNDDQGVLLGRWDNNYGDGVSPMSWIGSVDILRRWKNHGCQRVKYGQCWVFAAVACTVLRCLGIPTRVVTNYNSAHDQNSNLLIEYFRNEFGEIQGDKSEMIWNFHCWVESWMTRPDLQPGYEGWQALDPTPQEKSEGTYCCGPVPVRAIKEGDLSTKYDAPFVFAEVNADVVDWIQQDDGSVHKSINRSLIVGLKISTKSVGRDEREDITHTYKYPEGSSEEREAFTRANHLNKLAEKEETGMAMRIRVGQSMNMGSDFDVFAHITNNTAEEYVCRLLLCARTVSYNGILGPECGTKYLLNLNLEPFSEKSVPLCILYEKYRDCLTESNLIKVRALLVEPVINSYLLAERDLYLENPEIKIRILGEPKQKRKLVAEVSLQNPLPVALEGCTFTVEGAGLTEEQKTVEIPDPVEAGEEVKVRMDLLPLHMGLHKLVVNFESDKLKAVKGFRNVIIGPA
Kind of assay: Inactivation of human tissue transglutaminase, fluorescence assay with Abz-APE(CAD-DNP)QEA-OH. It counts as biochemical. The settings on record: substrate Abz-APE(CAD-DNP)QEA-OH, 37° C., pH=7.5. Here is the method: General Method for Inactivation of Human Tissue Transglutaminase
250 μg lyophilized His tagged recombinant human tissue transglutaminase (His6-rh-TG2, Zedira product T002) are reconstituted by adding 150 μl water (resulting buffer 50 mM NaH2PO4, 150 mM NaCl, pH=8.0).
A 10 mM inhibitor stock solution in DMSO is prepared and is diluted with buffer (50 mM Tris-HCl, 10 mM CaCl2, 5 mM DTT, pH=7.5) each to the twentyfold of the concentration desired in the preparation (but at least 1/50 dilution resulting in a 2% DMSO concentration).
900 μl of an assay-solution consisting of 55.56 mM Tris, 11.11 mM CaCl2, 0.11% PEG8000, 5.56 mM DTT, 5.56 mM glycine methyl ester and 50 μM Abz-APE(CAD-DNP)QEA-OH, (Zedira product A102; patent No.: EP 1781807B1), pH=7.5 are added to a cuvette and heated in a measuring cell of a spectrophotometer to 37° C. 50 μl of the particular inhibitor solution are added to this solution (resulting in a concentration of less than 0.2% DMSO in the mixture).
7 μl of the transglutaminase solution reconstituted above are diluted with 51 μl buffer (50 mM Tris, 100 mM NaCl, 5 mM DTT, pH=7.5). 50 μl of this enzyme solution (10 μg His6-rhTG2) are added to the assay-solution containing the particular inhibitor concentration. It is incubated 5 min at 37° C. before measuring starts (λexc=313 nm and λem=418 nm, t=15 to 30 min).
The evaluation of the resulting enzyme activity is done using the slope of the straight line obtained by the increase in fluorescence.
To determine the non-inhibited enzyme activity, DMSO instead of inhibitor stock solution is used. IC50 values are determined by plotting the resulting enzyme activity against the logarithm of the inhibitor concentration. IC50 is defined as the concentration of inhibitor resulting in 50% of enzyme activity.
By IC50 is commonly meant the point on the concentration scale where inhibition reaches its midpoint. `CCOC(=O)/C=C/CC[C@H](NC(=O)CCC(=O)O)C(=O)Nc1cccn(CC(=O)NCCN2CCNC2=O)c1=O` [A49, (S,E)-4-(7-Ethoxy-1,7-dioxo-1-(2-oxo-1-(2-oxo-2-(2-(2-oxoimidazolidin-1-yl)ethylamino)ethyl)-1,2-dihydropyridin-3-ylamino)hept-5-en-2-ylamino)-4-oxobutanoic acid]: the 50% inhibitory concentration (IC50) came out at 1800 nM.

Take `CCOC(=O)/C=C/CC[C@H](NC(C)=O)C(=O)Nc1cccn(CC(=O)NCC(C)CC)c1=O` (stereo partly drawn) [A50, (6S,E)-Ethyl 6-acetamido-7-(1-(2-(2-methylbutylamino)-2-oxoethyl)-2-oxo-1,2-dihydropyridin-3-ylamino)-7-oxohept-2-enoate]: the IC50 worked out at 119 nM.

In the case of `CCOC(=O)/C=C/CC[C@H](NC(=O)CCC(=O)O)C(=O)Nc1cccn(CC(=O)NCC(C)CC)c1=O` (stereo partly drawn) [A51, 4-((2S,E)-7-Ethoxy-1-(1-(2-(2-methylbutylamino)-2-oxoethyl)-2-oxo-1,2-dihydropyridin-3-ylamino)-1,7-dioxohept-5-en-2-ylamino)-4-oxobutanoic acid], the IC50 was 166 nM.

On to `CCOC(=O)/C=C/CC[C@H](NC(C)=O)C(=O)Nc1cccn(CC(=O)N2CCCC(C)C2)c1=O` (stereo partly drawn) [A52, (6S,E)-Ethyl 6-acetamido-7-(1-(2-(3-methylpiperidin-1-yl)-2-oxoethyl)-2-oxo-1,2-dihydropyridin-3-ylamino)-7-oxohept-2-enoate], for which the half-maximal inhibitory concentration (IC50) stood at 700 nM.

For the compound `CCOC(=O)/C=C/CC[C@H](NC(C)=O)C(=O)Nc1cccn(CC(=O)NCC(C)C)c1=O` [A54, (S,E)-Ethyl 6-acetamido-7-(1-(2-(isobutylamino)-2-oxoethyl)-2-oxo-1,2-dihydropyridin-3-ylamino)-7-oxohept-2-enoate], the IC50 came to 191 nM.

Regarding `CCOC(=O)/C=C/CC[C@H](NC(C)=O)C(=O)Nc1cccn(CC(=O)NC(C)C(C)C)c1=O` (stereo partly drawn) [A55, (6S,E)-Ethyl 6-acetamido-7-(1-(2-(3-methylbutan-2-ylamino)-2-oxoethyl)-2-oxo-1,2-dihydropyridin-3-ylamino)-7-oxohept-2-enoate], the IC50 came out at 153 nM.

For the compound `CCOC(=O)/C=C/CC[C@H](NC(=O)CCNC(N)=O)C(=O)Nc1cccn(CC(=O)NCCC(C)C)c1=O` [A56, (S,E)-Ethyl 7-(1-(2-(isopentylamino)-2-oxoethyl)-2-oxo-1,2-dihydropyridin-3-ylamino)-7-oxo-6-(3-ureidopropanamido)hept-2-enoate], the IC50 is 139 nM.

Turning to `CCOC(=O)/C=C/CC[C@H](NC(C)=O)C(=O)Nc1cccn(CC(=O)N[C@H](C(=O)OC)C(C)C)c1=O` [A57, (S,E)-Ethyl 6-acetamido-7-(1-(2-((S)-1-methoxy-3-methyl-1-oxobutan-2-ylamino)-2-oxoethyl)-2-oxo-1,2-dihydropyridin-3-ylamino)-7-oxohept-2-enoate], the concentration for half-maximal inhibition (IC50) came to 84 nM.

In the case of `COC(=O)/C=C/CC[C@H](NC(C)=O)C(=O)Nc1cccn(CC(=O)N2CCCC(C(F)(F)F)C2)c1=O` (stereo partly drawn) [A66, (6S,E)-Methyl 6-acetamido-7-oxo-7-(2-oxo-1-(2-oxo-2-(3-(trifluoromethyl)piperidin-1-yl)ethyl)-1,2-dihydropyridin-3-ylamino)hept-2-enoate], the IC50 stood at 310 nM.

With `CCC(CC)CNC(=O)Cn1cccc(NC(=O)[C@H](CC/C=C/C(=O)OC)NC(=O)c2cccnc2)c1=O` [A67, (S,E)-Methyl 7-(1-(2-(2-ethylbutylamino)-2-oxoethyl)-2-oxo-1,2-dihydropyridin-3-ylamino)-6-(nicotinamido)-7-oxohept-2-enoate], the IC50 came out at 55 nM.

Regarding `CCC(CC)CNC(=O)Cn1cccc(NC(=O)[C@H](CC/C=C/C(=O)OC)NC(=O)C(C)N)c1=O` (stereo partly drawn) [A68, (6S,E)-Methyl 6-(2-aminopropanamido)-7-(1-(2-(2-ethylbutylamino)-2-oxoethyl)-2-oxo-1,2-dihydropyridin-3-ylamino)-7-oxohept-2-enoate 2,2,2-trifluoroacetate], the IC50 was 53 nM.

With `CCC(CC)CNC(=O)Cn1cccc(NC(=O)[C@H](CC/C=C/C(=O)OC)NC(=O)CN)c1=O` [A69, (S,E)-Methyl 6-(2-aminoacetamido)-7-(1-(2-(2-ethybutylamino)-2-oxoethyl)-2-oxo-1,2-dihydropyridin-3-ylamino)-7-oxohept-2-enoate 2,2,2-trifluoroacetate], the IC50 was 71 nM.

For the compound `CCC(CC)CNC(=O)Cn1cccc(NC(=O)[C@H](CC/C=C/C(=O)OC)NC(=O)c2ccccc2N)c1=O` [A70, (S,E)-Methyl 6-(2-aminobenzamido)-7-(1-(2-(2-ethylbutylamino)-2-oxoethyl)-2-oxo-1,2-dihydropyridin-3-ylamino)-7-oxohept-2-enoate 2,2,2-trifluoroacetate], the IC50 is 81 nM.

As to `CCC(CC)CNC(=O)Cn1cccc(NC(=O)[C@H](CC/C=C/C(=O)OC)NC(=O)c2ccc3c(c2)C(=O)OC32c3ccc(N(C)C)cc3Oc3cc(N(C)C)ccc32)c1=O` [A71, (S,E)-Methyl 6-(3′,6′-bis(dimethylamino)-3-oxo-3H-spiro[isobenzofuran-1,9′-xanthene]-5-ylcarboxamido)-7-(1-(2-(2-ethylbutylamino)-2-oxoethyl)-2-oxo-1,2-dihydropyridin-3-ylamino)-7-oxohept-2-enoate], the IC50 was found to be 97 nM.

As for `CCC(CC)CNC(=O)Cn1cccc(NC(=O)[C@@H](CC/C=C/C(=O)OC)NC(=O)c2cncn2C)c1=O` [A76, (R,E)-Methyl 7-(1-(2-(2-ethylbutylamino)-2-oxoethyl)-2-oxo-1,2-dihydropyridin-3-ylamino)-6-(1-methyl-1H-imidazole-5-carboxamido)-7-oxohept-2-enoate], the IC50 turned out to be 54700 nM.

For `CC(=O)N[C@@H](CC/C=C/S(C)(=O)=O)C(=O)Nc1cccn(CC(=O)NCCC(C)C)c1=O` [A77, (S,E)-2-acetamido-N-(1-(2-(isopentylamino)-2-oxoethyl)-2-oxo-1,2-dihydropyridin-3-yl)-6-(methylsulfonyl)hex-5-enamide], the IC50 amounted to 469 nM.

For `CC(=O)N[C@@H](CC/C=C/C(=O)OCc1ccccc1)C(=O)Nc1cccn(CC(=O)NCCC(C)C)c1=O` [A78, (S,E)-Benzyl 6-acetamido-7-(1-(2-(isopentylamino)-2-oxoethyl)-2-oxo-1,2-dihydropyridin-3-ylamino)-7-oxohept-2-enoate], the IC50 worked out at 627 nM.
